Laboratory results published in patent publication US20220409657A1, “INSTRUCTIONS FOR COMPOSITION AND SENSITIVITY” (Azura Ophthalmics Ltd., priority 2020, published 2022).
Like-named read-outs stand apart in the source and are kept apart here.

How the values were obtained:
[1] = test system: human subjects
Description: In a clinical study three different concentrations were used; 0.1 wt. %, (10 subjects) 0.5 wt. % (12 subjects) and 1 wt. % (26 subjects).

[2] = test system: study patients; settings: in vivo
Protocol: In a first study patients were instructed to dose in both the evening, between visits, and in the daytime during regular scheduled clinic visits as part of the study protocol. Study patients received a 2-week run-in on a placebo which was administered twice weekly for a period of two weeks.
Adverse events comprise a feeling of grittiness, foreign body feeling, stinging, blurry vision, redness, tired eyes, water eyes, irritation, lid abnormalities, burning, corneal abrasion, photophobia, staining, or dry eye disorder (DED).

[3] = test system: rabbits; settings: dose about 4 mg, concentration up to 2.5 wt. %, ointment over the eyelid margin
[4] = test system: seborrheic blepharitis; settings: cited from earlier work
[5] = test system: meibomian gland disorder (MGD) patients; settings: twice a week, 3 month time point
Protocol: The drug was applied twice a week and final evaluation was done at the 3 month time point in which the primary outcome of Meibomian Gland Score (MGS) was assessed.

[6] = test system: animals; settings: in vivo; cited from earlier work
[7] = test system: human subjects; settings: in vivo
Description: An additional 2 or 3 additional cases of adverse effects. Of these subjects, 2 had keratitis following the 1st in-office application and another patient deteriorate following the 2nd in-office application although the subject kept on another dose or two at home before coming with pain to be examined (a typical scenario when keratitis evolves).

[8] = test system: human subject
Protocol: In most instances, the treatment is applied on a biweekly basis, however some patients move to daily application based on prespecified protocol criteria. Because the ointment-based composition is known to mix with tear fluid and cause blurry vision, individuals in this study are advised to apply the treatment prior to bed so as to avoid risks associated with reduced vision acuity. […] The in-office applications are conducted at specific, pre-determined time points. In these instances, the treatment is not applied before bed but rather is performed during daylight hours.

[9] = in vivo; cited from earlier work

selenium disulfide [SeS2]
adverse events during the first month ([1]; human, in vivo): no adverse events
initiation of pain after the application ([1]; human, in vivo): 6 to 20 h
keratitis after in-office, daytime applications ([1]; human, in vivo): no development of keratitis
keratitis in bedtime applications ([1]; human, in vivo): without a single occurrence of keratitis
subjects who developed keratitis or keratitis related symptoms ([1]; human, in vivo): four
time from in-office morning application to significant pain ([1]; human, in vivo): About 7 hours
total OSDI, VAS and SPEED ([1]; one patient, 1 wt. %, first month, twice weekly at home before bedtime): significant improvement
reduction in the incidence of ocular adverse events [2]: 75%
reduction of discontinuations from adverse events (DC for AE) [2]: at least 50%
reduction of rates of ocular adverse events (ocular AE) [2]: at least 50%
tolerability [3]: well tolerated
treatment of seborrheic blepharitis ([4]; SeS2 0.5%): effective
adverse events following topical ocular use ([4]; human, in vivo): superficial punctate keratitis and conjunctivitis
average change from baseline in Meibomian Gland Score (MGS) ([5]; 9 patients using finger): 10 (+/− 8.2)
average change from baseline in Meibomian Gland Score (MGS) ([5]; 13 patients using applicator): 2.3 (+/− 4.4)
safe concentration for use in humans [6]: 0.5%
additional cases of adverse effects [7]: 2-3 cases
subjects with keratitis following the 1st in-office application [7]: 2 subjects
keratitis ([8]; 0.1 wt. % concentration): Keratitis is not observed
keratitis ([8]; 0.5 wt. % concentration): Keratitis is not observed
patients noting symptoms of keratitis ([8]; 1 wt. % cohort, following in-office assessment): four
bedtime applications resulting in keratitis ([8]; 400 or more bedtime applications): none
health outcomes by OSDI, VAS and SPEED ([8]; at least one patient, one month of treatment, 1 wt. %): improved health outcomes
time from in-office assessment to significant pain near the treated area ([8]; one patient, 1 wt. %): ≤ 7 h
contact dermatitis [9]: can produce contact dermatitis
contact or photo-contact dermatitis in tinea versicolor treatment [9]: None of the investigators encountered a single case
hair loss after shampooing [9]: diffuse hair loss
skin reaction after shampoo applied three consecutive nights [9]: developed circumscribed eczematous plaques
